In the SangsterLogP compilation:

Test: method code SF-AS, from DOI: 10.1002/recl.19891080306

SMILES	logP
c1ccc2c(c1)OCCOCCOCCOCCO2	0.91
COCCOCCOc1ccc(OCCOCCOC)cc1	0.76
c1ccc2c(c1)OCCOCCOCCOCCOCCOCCOCCOc1ccccc1OCCOCCOCCOCCOCCOCCOCCO2	0.52
c1ccc2c(c1)OCCOCCOCCOCCOCCOCCO2	0.57
c1ccc2c(c1)OCCOCCOCCOCCOCCOCCOCCOc1ccccc1OCCO2	1.82
c1ccc2c(c1)OCCOCCOCCOCCOCCO2	0.58
COCCOCCOc1cccc(OCCOCCOC)c1	0.86
c1ccc2c(c1)OCCOCCOCCOCCOCCOCCOCCO2	0.45
c1ccc2c(c1)OCCOCCOCCOCCOCCOCCOc1ccccc1OCCOCCOCCO2	1.45
c1ccc2c(c1)OCCOCCOCCOCCOCCOCCOCCOCCOCCOCCO2	-0.09
c1ccc2c(c1)OCCOCCOCCOc1ccccc1OCCOCCOCCO2	2.11
c1ccc2c(c1)OCCOCCOc1ccccc1OCCOCCO2	2.2

The next lines start with the values.

logP	SMILES
0.23	c1ccc2c(c1)OCCOCCOCCOCCOCCOCCOCCOCCO2
1.8	c1ccc2c(c1)OCCOCCOCCOCCOc1ccccc1OCCOCCOCCOCCO2
1.63	c1ccc2c(c1)OCCOCCOCCOCCOCCOCCOc1ccccc1OCCO2
0.38	COCCOCCOCCOc1ccccc1OCCOCCOCCOC
0.76	COCCOCCOc1ccccc1OCCOCCOC
0.03	c1ccc2c(c1)OCCOCCOCCOCCOCCOCCOCCOCCOCCO2
